According to patent US5703097A, “5-pyrrolyl-2-pyridylmethylsulfinyl benzimidazole derivatives” (priority 1994, dated 1997):
Structures can show the parent of a compound that is named as a salt. Each block holds one molecule with its values, some of them ahead of it.

Key:
H^+ /K^+ -ATPase = target: T1, H^+ /K^+ -ATPase (Oryctolagus cuniculus, UniProt P27112); test: Inhibition of enzyme activity: in vitro inhibition of H+/K+-ATPase (TEST 1); assay type: biochemical, rabbit; settings: 5 min pre-incubation at 37° C., 4 mM ATP
T1 construct: The gastric mucous membrane was removed from a rabbit; from tissue; host or cells: rabbit gastric mucosa, microsomal fraction (77,000 g)
Experimental: In this test, omeprazole [5-methoxy-2-[[(4-methoxy-3,5-dimethyl-2-pyridinyl)methyl]sulfinyl]-1H-benzimidazole] was used as the control compound.
The gastric mucous membrane was removed from a rabbit and then centrifuged with 77,000 g using a ultra-centrifuge to separate the microsomal fraction which was used as the source of H^+ /K^+ -ATPase enzyme for this test. 60 μg of H^+ /K^+ -ATPase was pre-incubated with the sample (the compound according to the present invention) for 5 minutes at 37° C. and then 4 mM ATP as the substrate and 4 mM Mg^++, 20 mM K^+ as the cofactor were added thereto. Then, the amount of inorganic phosphorus thus produced was determined using a spectrophotometer at 660 nm and converted into the amount of protein. […]

gastric juice secretion = test: Effect on inhibition of gastric juice secretion, in vivo, Shay method (TEST 2); design: species or system rat (SD male rats); settings: for Volume of gastric juice / Inhibition rate, gastric juice secretion: into duodenum, 5 hours; for Volume of gastric juice: pylorus-ligated rats; for Inhibition rate, gastric juice secretion: vs normal group
Experimental: (§1) The specific test methods are as follows.
(§2) SD male rats (200±20 g) were fasted for 24 hours, except for water, and then anesthesized with ether. The abdomen of rats was incised and then the pylorus was ligated. The test compounds were suspended or dissolved in 5% CMC (carboxymethylcellulose) and injected into duodenum. After the abdomen was sutured, the rats were allowed to stand for 5 hours and then sacrificed with ether. The stomach was removed from rats and the gastric juices were collected. The gastric juice was centrifuged with 10,000 xg for 10 minutes at 4° C. to remove the precipitate. The amount of gastric juice and acidity were determined using pH 7.0 end point assay with 0.02N NaOH and then the total acid output was calculated.

gastric acidity = test: Effect on inhibition of acidity (total acid output), in vivo, Shay method (TEST 2); design: species or system rat (SD male rats); settings: for Volume (acidity, total acid output) / Inhibition rate, acidity: into duodenum, 5 hours; for Volume (acidity, total acid output): pylorus-ligated rats; for Inhibition rate, acidity: vs normal group
Experimental: as §1, §2

[1] = in words, even at a lower dose than that of the known anti-ulcer agent

T1 sequence (P27112 2-1035 limits assumed): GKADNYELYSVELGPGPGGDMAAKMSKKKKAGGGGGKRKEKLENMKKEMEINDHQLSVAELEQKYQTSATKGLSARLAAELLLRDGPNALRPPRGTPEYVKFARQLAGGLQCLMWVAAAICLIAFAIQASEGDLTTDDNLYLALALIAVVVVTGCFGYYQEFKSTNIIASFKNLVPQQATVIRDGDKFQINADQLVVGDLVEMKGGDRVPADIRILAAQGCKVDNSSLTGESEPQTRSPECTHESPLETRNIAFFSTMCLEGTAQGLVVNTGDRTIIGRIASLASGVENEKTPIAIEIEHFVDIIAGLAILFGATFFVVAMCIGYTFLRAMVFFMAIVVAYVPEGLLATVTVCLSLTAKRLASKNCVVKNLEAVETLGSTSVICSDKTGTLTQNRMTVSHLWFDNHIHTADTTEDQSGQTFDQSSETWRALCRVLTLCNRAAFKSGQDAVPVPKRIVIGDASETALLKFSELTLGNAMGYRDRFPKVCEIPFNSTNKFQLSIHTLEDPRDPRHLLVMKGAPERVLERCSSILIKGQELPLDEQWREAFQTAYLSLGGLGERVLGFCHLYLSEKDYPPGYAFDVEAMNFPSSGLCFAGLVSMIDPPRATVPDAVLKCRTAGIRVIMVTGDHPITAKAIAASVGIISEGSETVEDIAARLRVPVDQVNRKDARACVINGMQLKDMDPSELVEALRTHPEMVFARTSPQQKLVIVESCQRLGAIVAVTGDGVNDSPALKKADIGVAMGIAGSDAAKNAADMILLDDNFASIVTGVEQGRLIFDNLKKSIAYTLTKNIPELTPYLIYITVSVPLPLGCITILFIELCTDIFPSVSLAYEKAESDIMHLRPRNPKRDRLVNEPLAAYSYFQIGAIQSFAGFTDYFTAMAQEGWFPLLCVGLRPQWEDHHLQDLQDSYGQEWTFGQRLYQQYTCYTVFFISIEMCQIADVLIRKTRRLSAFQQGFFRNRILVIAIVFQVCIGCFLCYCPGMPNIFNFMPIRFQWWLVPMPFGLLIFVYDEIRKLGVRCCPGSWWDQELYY
T1 sequence (P18597 whole entry partner): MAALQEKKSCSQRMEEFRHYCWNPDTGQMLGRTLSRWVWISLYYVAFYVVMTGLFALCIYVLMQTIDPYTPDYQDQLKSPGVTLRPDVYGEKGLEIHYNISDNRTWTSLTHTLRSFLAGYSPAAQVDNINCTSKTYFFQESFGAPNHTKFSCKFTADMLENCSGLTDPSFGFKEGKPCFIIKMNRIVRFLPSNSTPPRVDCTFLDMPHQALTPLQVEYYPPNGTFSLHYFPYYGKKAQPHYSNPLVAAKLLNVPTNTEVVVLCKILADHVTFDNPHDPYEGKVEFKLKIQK

IC50 (H^+ /K^+ -ATPase): 33 µM
Structure (SMILES): COc1ccnc(C[S+]([O-])c2nc3cc(-n4c(C)ccc4C)ccc3[nH]2)c1C (stereo not shown) [Compound 15, 2-[[(4-methoxy-3-methyl)-2-pyridinyl]methylsulfinyl]-5-(1H-2,5-dimethylpyrrol-1-yl)-1H-benzimidazole]

IC50 (H^+ /K^+ -ATPase): ~400 µM
Structure (SMILES): Cc1cnc(C[S+]([O-])c2nc3cc(-n4cccc4)ccc3[nH]2)cc1C (stereo not shown) [Compound 6]

IC50 (H^+ /K^+ -ATPase): 64 µM
Structure (SMILES): CCOc1ccnc(C[S+]([O-])c2nc3cc(-n4cccc4)ccc3[nH]2)c1C (stereo not shown) [Compound 9]
Volume of gastric juice (gastric juice secretion; 10 mg/kg): 1.50 ± 0.15 ml/100 g BW
Inhibition rate, gastric juice secretion (gastric juice secretion; 10 mg/kg): 36.04%
Volume of gastric juice (gastric juice secretion; 30 mg/kg): 1.14 ± 0.12 ml/100 g BW
Inhibition rate, gastric juice secretion (gastric juice secretion; 30 mg/kg): 51.46%
effect for inhibition of gastric acid secretion (gastric juice secretion; in words): good effects
Volume (acidity, total acid output) (gastric acidity; 10 mg/kg): 11.84 ± 3.10 μ Eq/hr
Inhibition rate, acidity (gastric acidity; 10 mg/kg): 56.66%
Volume (acidity, total acid output) (gastric acidity; 30 mg/kg): 3.80 ± 1.54 μ Eq/hr
Inhibition rate, acidity (gastric acidity; 30 mg/kg): 86.09%
effect for lowering acidity (gastric acidity; in words): good effects

IC50 (H^+ /K^+ -ATPase): > 400 µM
Structure (SMILES): Cc1ccnc(C[S+]([O-])c2nc3cc(-n4cccc4)ccc3[nH]2)c1 (stereo not shown) [Compound 7]

IC50 (H^+ /K^+ -ATPase): 38 µM
Structure (SMILES): COc1cc(C[S+]([O-])c2nc3cc(-n4cccc4)ccc3[nH]2)ncc1C (stereo not shown) [Compound 18]
Volume of gastric juice (gastric juice secretion; 3 mg/kg): 2.24 ± 0.12 ml/100 g BW
Inhibition rate, gastric juice secretion (gastric juice secretion; 3 mg/kg): 27.35%
Volume of gastric juice (gastric juice secretion; 10 mg/kg): 2.14 ± 0.30 ml/100 g BW
Inhibition rate, gastric juice secretion (gastric juice secretion; 10 mg/kg): 30.90%
Volume of gastric juice (gastric juice secretion; 30 mg/kg): 1.53 ± 0.19 ml/100 g BW
Inhibition rate, gastric juice secretion (gastric juice secretion; 30 mg/kg): 50.42%
Volume (acidity, total acid output) (gastric acidity; 3 mg/kg): 28.37 ± 3.44 μ Eq/hr
Inhibition rate, acidity (gastric acidity; 3 mg/kg): 53.39%
Volume (acidity, total acid output) (gastric acidity; 10 mg/kg): 23.40 ± 3.94 μ Eq/hr
Inhibition rate, acidity (gastric acidity; 10 mg/kg): 61.55%
Volume (acidity, total acid output) (gastric acidity; 30 mg/kg): 15.72 ± 3.60 μ Eq/hr
Inhibition rate, acidity (gastric acidity; 30 mg/kg): 74.18%

IC50 (H^+ /K^+ -ATPase): 91 µM
Structure (SMILES): COc1ccnc(C[S+]([O-])c2nc3cc(-n4cccc4)ccc3[nH]2)c1 (stereo not shown) [Compound 8]
Volume of gastric juice (gastric juice secretion; 10 mg/kg): 1.42 ± 0.24 ml/100 g BW
Inhibition rate, gastric juice secretion (gastric juice secretion; 10 mg/kg): 28.85%
Volume of gastric juice (gastric juice secretion; 30 mg/kg): 0.87 ± 0.15 ml/100 g BW
Inhibition rate, gastric juice secretion (gastric juice secretion; 30 mg/kg): 56.09%
effect for inhibition of gastric acid secretion (gastric juice secretion; in words): good effects
Volume (acidity, total acid output) (gastric acidity; 10 mg/kg): 14.29 ± 2.81 μ Eq/hr
Inhibition rate, acidity (gastric acidity; 10 mg/kg): 60.81%
Volume (acidity, total acid output) (gastric acidity; 30 mg/kg): 2.92 ± 1.42 μ Eq/hr
Inhibition rate, acidity (gastric acidity; 30 mg/kg): 91.99%
effect for lowering acidity (gastric acidity; in words): good effects

IC50 (H^+ /K^+ -ATPase): 100 µM
Structure (SMILES): Cc1c(OCC(F)(F)F)ccnc1C[S+]([O-])c1nc2cc(-n3cccc3)ccc2[nH]1 (stereo not shown) [Compound 13, 2-[[(4-(2,2,2-trifluoroethoxy)-3-methyl)-2-pyridinyl]methylsulfinyl]-5-(1H-pyrrol-1-yl)-1H-benzimidazole]

IC50 (H^+ /K^+ -ATPase): > 400 µM
Structure (SMILES): COc1ccnc(CSc2nc3cc(-n4cccc4)ccc3[nH]2)c1C [Compound 1, 2-[[(4-methoxy-3-methyl)-2-pyridinyl]methylthio]-5-(1H-pyrrol-1-yl)-1H-benzimidazole]

IC50 (H^+ /K^+ -ATPase): > 400 µM
Structure (SMILES): Cc1c(OCC(F)(F)C(F)(F)F)ccnc1C[S+]([O-])c1nc2cc(-n3cccc3)ccc2[nH]1 (stereo not shown) [Compound 14, 2-[[(4-(2,2,3,3,3-pentafluoropropoxy)-3-methyl)-2-pyridinyl]methylsulfinyl]-5-(1H-pyrrol-1-yl)-1H-benzimidazole]

Structure (SMILES): COc1ccnc(C[S+]([O-])c2nc3cc(-n4cccc4)ccc3[nH]2)c1C (stereo not shown) [Compound 16, 2-[[(4-methoxy-3-methyl)-2-pyridinyl]methylsulfinyl]-5-(1H-pyrrol-1-yl)-1H-benzimidazole sodium salt]
Volume of gastric juice (gastric juice secretion; 3 mg/kg, sodium salt): 2.05 ± 0.16 ml/100 g BW
Inhibition rate, gastric juice secretion (gastric juice secretion; 3 mg/kg, sodium salt): 41.29%
Volume of gastric juice (gastric juice secretion; 10 mg/kg, sodium salt): 1.35 ± 0.12 ml/100 g BW
Inhibition rate, gastric juice secretion (gastric juice secretion; 10 mg/kg, sodium salt): 61.51%
Volume of gastric juice (gastric juice secretion; 30 mg/kg, sodium salt): 1.17 ± 0.20 ml/100 g BW
Inhibition rate, gastric juice secretion (gastric juice secretion; 30 mg/kg, sodium salt): 66.61%
effect for inhibition of gastric acid secretion (gastric juice secretion; in words): good effects
Volume (acidity, total acid output) (gastric acidity; 3 mg/kg, sodium salt): 22.59 ± 2.88 μ Eq/hr
Inhibition rate, acidity (gastric acidity; 3 mg/kg, sodium salt): 70.05%
Volume (acidity, total acid output) (gastric acidity; 10 mg/kg, sodium salt): 10.99 ± 3.05 μ Eq/hr
Inhibition rate, acidity (gastric acidity; 10 mg/kg, sodium salt): 85.43%
Volume (acidity, total acid output) (gastric acidity; 30 mg/kg, sodium salt): 1.98 ± 1.21 μ Eq/hr
Inhibition rate, acidity (gastric acidity; 30 mg/kg, sodium salt): 97.37%
effect for lowering acidity (gastric acidity; in words): good effects
IC50 (H^+ /K^+ -ATPase): 28 µM

Structure (SMILES): COc1ccnc(C[S+]([O-])c2nc3cc(-n4cccc4)ccc3[nH]2)c1C (stereo not shown) [Compound 17]
Volume of gastric juice (gastric juice secretion; 3 mg/kg): 1.31 ± 0.18 ml/100 g BW
Inhibition rate, gastric juice secretion (gastric juice secretion; 3 mg/kg): 54.79%
Volume of gastric juice (gastric juice secretion; 10 mg/kg): 1.23 ± 0.20 ml/100 g BW
Inhibition rate, gastric juice secretion (gastric juice secretion; 10 mg/kg): 57.55%
Volume of gastric juice (gastric juice secretion; 30 mg/kg): 1.15 ± 0.15 ml/100 g BW
Inhibition rate, gastric juice secretion (gastric juice secretion; 30 mg/kg): 60.38%
effect for inhibition of gastric acid secretion (gastric juice secretion; in words): good effects
Volume (acidity, total acid output) (gastric acidity; 3 mg/kg): 14.94 ± 3.02 μ Eq/hr
Inhibition rate, acidity (gastric acidity; 3 mg/kg): 75.02%
Volume (acidity, total acid output) (gastric acidity; 10 mg/kg): 8.50 ± 1.30 μ Eq/hr
Inhibition rate, acidity (gastric acidity; 10 mg/kg): 85.79%
Volume (acidity, total acid output) (gastric acidity; 30 mg/kg): 6.06 ± 3.05 μ Eq/hr
Inhibition rate, acidity (gastric acidity; 30 mg/kg): 89.87%
effect for lowering acidity (gastric acidity; in words): good effects
IC50 (H^+ /K^+ -ATPase): 13 µM

IC50 (H^+ /K^+ -ATPase): > 400 µM
Structure (SMILES): [O-][S+](Cc1ccccn1)c1nc2cc(-n3cccc3)ccc2[nH]1 (stereo not shown) [Compound 11]

IC50 (H^+ /K^+ -ATPase): 210 µM
Structure (SMILES): COc1c(C)cnc(C[S+]([O-])c2nc3cc(-n4cccc4)ccc3[nH]2)c1C (stereo not shown) [Compound 4]

IC50 (H^+ /K^+ -ATPase): 85 µM
Structure (SMILES): Cc1cnc(C[S+]([O-])c2nc3cc(-n4cccc4)ccc3[nH]2)c(C)c1 (stereo not shown) [Compound 12]

IC50 (H^+ /K^+ -ATPase): 32 µM
Structure (SMILES): COc1cc(C[S+]([O-])c2nc3cc(-n4cccc4)ccc3[nH]2)ncc1C (stereo not shown) [Compound 5]
Volume of gastric juice (gastric juice secretion; 10 mg/kg): 1.31 ± 0.23 ml/100 g BW
Inhibition rate, gastric juice secretion (gastric juice secretion; 10 mg/kg): 52.81%
Volume of gastric juice (gastric juice secretion; 30 mg/kg): 0.99 ± 0.16 ml/100 g BW
Inhibition rate, gastric juice secretion (gastric juice secretion; 30 mg/kg): 64.30%
effect for inhibition of gastric acid secretion (gastric juice secretion; in words): good effects
inhibition of gastric juice secretion (gastric juice secretion; [1]): strong inhibition of gastric juice secretion
Volume (acidity, total acid output) (gastric acidity; 10 mg/kg): 16.89 ± 4.06 μ Eq/hr
Inhibition rate, acidity (gastric acidity; 10 mg/kg): 70.60%
Volume (acidity, total acid output) (gastric acidity; 30 mg/kg): 5.59 ± 2.22 μ Eq/hr
Inhibition rate, acidity (gastric acidity; 30 mg/kg): 90.27%
effect for lowering acidity (gastric acidity; in words): good effects
acidity lowering effect (gastric acidity; [1]): high acidity lowering effect

Structure (SMILES): COc1ccc2[nH]c([S+]([O-])Cc3ncc(C)c(OC)c3C)nc2c1 (stereo not shown) [Omeprazole, 5-methoxy-2-[[(4-methoxy-3,5-dimethyl-2-pyridinyl)methyl]sulfinyl]-1H-benzimidazole, reference compound]
Volume of gastric juice (gastric juice secretion; 10 mg/kg): 1.68 ± 0.30 ml/100 g BW
Inhibition rate, gastric juice secretion (gastric juice secretion; 10 mg/kg): 54.49%
Volume (acidity, total acid output) (gastric acidity; 10 mg/kg): 12.46 ± 1.85 μ Eq/hr
Inhibition rate, acidity (gastric acidity; 10 mg/kg): 84.00%
IC50 (H^+ /K^+ -ATPase): ~160 µM

IC50 (H^+ /K^+ -ATPase): > 400 µM
Structure (SMILES): COc1ccnc(CS(=O)(=O)c2nc3cc(-n4cccc4)ccc3[nH]2)c1C [Compound 3]

IC50 (H^+ /K^+ -ATPase): 8.8 µM
Structure (SMILES): CCc1cnc(C[S+]([O-])c2nc3cc(-n4cccc4)ccc3[nH]2)cc1OC (stereo not shown) [Compound 10]
